From ChEMBL document CHEMBL2150972, “Hepatitis C virus protease inhibitors: patent highlight” (ACS Med Chem Lett, 2012) come the findings set out here.

Experiment [1] relates to Hepatitis C virus. Nature of the experiment: Antiviral activity against HCV assessed as inhibition of viral RNA replication by cell based luciferase reporter gene assay. In kind it is functional, organism-based, Hepacivirus hominis. On the technique in general: In a reporter assay the amount or activity of a reporter protein is the signal.
In experiment [2] the test system is Hepatitis C virus. The experiment can be described thus: Antiviral activity against HCV by HCVSPF-CY1B assay. In kind it is functional, organism-based, Hepacivirus hominis.

With `O=C(N[C@H]1CCCCC/C=C/[C@@H]2C[C@@]2(C(=O)NS(=O)(=O)C2CC2)NC(=O)[C@@H]2C[C@@H](Oc3ccncc3)CN2C1=O)OCCF`, the EC50 – broadly, the concentration needed to bring the measured effect to its halfway point – in experiment [1] is 290 nM.

In the case of `CCOc1cc(O[C@@H]2C[C@H]3C(=O)N[C@]4(C(=O)NS(=O)(=O)C5CC5)C[C@H]4/C=C/CC[C@@H]4CC4[C@H](NC(=O)c4ccn(C)n4)C(=O)N3C2)ccn1` (some centres not stated), in experiment [2], the midpoint of the response, the EC50, lay at 34 nM.
